Experimental data taken from patent EP4741379A1, “CLASS OF PROGRAMMED CELL DEATH INHIBITORS, PREPARATION METHOD THEREFOR AND USE THEREOF” (SHANGHAI INSTITUTE OF ORGANIC CHEMISTRY, CHINESE ACADEMY OF …, priority 2023, dated 2025).
Where two headings read alike, the source gives them in different places.

Key:
L929 cells = test: TNF-induced programmed necrosis of L929 cells (Cell Titer-Glo viability); format: cell-based, mouse; conditions: Mus musculus
Description: (§1) The biological test protocol is adopted to test effects of the compound on TNF-induced programmed necrosis of FADD (Fas-associated death domain)-deficient Jurkat cells and L929 cells.
(§2) Two different stimulation methods were used: treating with tumor necrosis factor (TNFα) alone, or treating with TNFα in combination of mitochondrial-derived cysteine-aspartate activator (SMAC) SM164. Cell viability was determined by measuring chemiluminescence values, thereby assessing the bioactivity of the compounds in inhibiting programmed cell necrosis.
(§3) Method: FADD-deficient Jurkat cells: FADD-deficient Jurkat cells (human peripheral blood leukemia T cell line) were cultured in vitro. After reaching logarithmic growth phase, cells were collected and centrifuged at 1000 rpm for 5 minutes. A supernatant was discarded. A cell concentration was adjusted to 2.5×10^5/mL, and cells were seeded into a 384-well plate at 40 µL per well. In the corresponding wells, 5 µL of SM164 (50 nM) and compounds diluted with cell culture medium were added. After pre-treatment at 37°C for 1 hour, 5 µL of TNFα (50 ng/mL) diluted with cell culture medium was added to each well as a stimulation group, while 5 µL of culture medium was added as a control group. After the plate was incubated in a cell culture incubator (37°C, 5% CO2) for 14 hours, 15 µL of Cell Titer-Glo solution was added to each well. Then, the plate was incubated at room temperature for 30 minutes. Luminescence was measured to assess intracellular ATP levels. Cell viability was set at 100% for unstimulated DMSO control wells. […] The plate was placed in a cell culture incubator (37°C, 5% CO2) and cultured for 12 hours. In the corresponding wells, 5 µL of SM164 (500 nM) and compounds diluted with cell culture medium were added. After pre-treatment at 37°C for 1 hour, 5 µL of TNFα (500 ng/mL) diluted with cell culture medium was added to the wells as a stimulation group, while 5 µL of culture medium was added as a control group. After the plate was incubated in the cell incubator (37°C, 5% CO2) for 14 hours, 15 µL of Cell Titer-Glo solution was added to each well. Then, the plate was incubated at room temperature for 30 minutes, and luminescence was measured to assess intracellular ATP levels. Cell viability was set at 100% for unstimulated DMSO control wells. EC50 values of the compounds were calculated using Prism GraphPad statistical software.

[1] = tested on: FADD-deficient Jurkat cells; test: TNF-induced programmed necrosis of FADD-deficient Jurkat cells (Cell Titer-Glo viability); format: cell-based, human; conditions: Homo sapiens, Jurkat
Description: as §1, §2, §3

[2] = L929, stimulation with TNFα + SM164, read-out: EC50 (nM) L929 cells (mouse-derived) TNFα+ SM164
[3] = L929, stimulation with TNFα alone, read-out: EC50 (nM) L929 cells (mouse-derived) TNFα
[4] = stimulation with TNFα + SM164, read-out: EC50 (nM) FADD^-/- Jurkat cells (human-derived) TNFα+ SM164
[5] = stimulation with TNFα alone, read-out: EC50 (nM) FADD^-/- Jurkat cells (human-derived) TNFα

Compound | EC50 (L929 cells; [2]) [nM] | EC50 (L929 cells; [3]) [nM] | EC50 [1, 4] [nM] | EC50 [1, 5] [nM] | also measured
Cn1nnc(C(=O)NCc2ccc(C#Cc3ccccn3)c(F)c2)c1Cc1ccccc1 [IRCBC-058] | 35.2 | 1.5 | 1.25 | 0.018 | 
Cn1nnc(C(=O)NCc2ccc(C#Cc3ccccn3)cc2F)c1Cc1ccccc1 [IRCBC-059] | 14.8 | 3.07 | 2.26 | 0.025 | 
C[C@H](NC(=O)c1nnn(C)c1Cc1ccccc1F)c1ccc(C#Cc2ccccn2)cc1 [IRCBC-067] | 0.887 | 0.264 | 0.261 | 0.004 | 
C[C@H](NC(=O)c1nnn(C)c1Cc1ccc(C#N)cc1)c1ccc(C#Cc2ccccn2)cc1 [IRCBC-071] | 2.99 | 0.914 | 0.641 | 0.006 | 
C[C@H](NC(=O)c1nnn(C)c1Cc1cccc(C#N)c1)c1ccc(C#Cc2ccccn2)cc1 [IRCBC-072] | 17.3 | 1.79 | 2.73 | 0.049 | 
C[C@H](NC(=O)c1nnn(C)c1Cc1ccccc1)c1ccc(C#Cc2c(F)cncc2F)cc1 [IRCBC-091] | 1.29 | 0.455 | 0.145 | 0.004 | 
C[C@H](NC(=O)c1nnn(C)c1Cc1ccccc1)c1ccc(C#Cc2ccncc2Cl)cc1 [IRCBC-093] |  |  |  |  | EC50 (L929 cells; L929, read-out: EC50 (nM) L929 cells (mouse-derived) TNFα): 0.374 nM; EC50 ([1]; read-out: EC50 (nM) FADD^-/- Jurkat cells (human-derived) TNFα): 0.001 nM
C[C@H](NC(=O)c1nnn(C)c1Cc1ccccc1)c1ccc(C#Cc2ccncc2C#N)cc1 [IRCBC-094] | 2.16 | 0.403 | 0.304 | 0.001 | 
COc1cnc(C#Cc2ccc([C@H](C)NC(=O)c3nnn(C)c3Cc3ccccc3)cc2)nc1 [IRCBC-095] | 0.052 | 0.01 | 0.002 |  | 
C[C@H](NC(=O)c1nnn(C)c1Cc1ccccc1)c1ccc(C#Cc2ccc(C(F)(F)F)cn2)cc1 [IRCBC-096] |  |  | 0.406 | 0.006 | EC50 (L929 cells; L929, stimulation with TNFα + SM164, µM, read-out: EC50 L929 cells (mouse-derived) TNFα+ SM164): > 1000 nM; EC50 (L929 cells; L929, stimulation with TNFα alone, µM, read-out: EC50 L929 cells (mouse-derived) TNFα): > 1000 nM
C[C@H](NC(=O)c1nnn(C)c1Cc1ccccc1)c1ccc(C#Cc2ncc(N(C)C)cn2)cc1 [IRCBC-097] | 0.003 | 0.001 |  |  | 
CNc1ccc(C#Cc2ccc([C@H](C)NC(=O)c3nnn(C)c3Cc3ccccc3)cc2)nc1 [IRCBC-102] | 0.018 | 0.01 |  |  | 
C[C@H](NC(=O)c1nnn(C)c1Cc1ccccc1)c1ccc(C#Cc2ccc(N3CCOCC3)cn2)cc1 [IRCBC-105] | 0.004 | 0.008 |  |  | 
C[C@H](NC(=O)c1nnn(C)c1Cc1ccccc1)c1ccc(C#Cc2ncc3nc[nH]c3n2)cc1 [IRCBC-129] | 0.196 | 0.06 |  |  | 
CC(C)Nc1ccc(C#Cc2ccc([C@H](C)NC(=O)c3nnn(C)c3Cc3ccccc3)cc2)nc1 [IRCBC-146] | 0.0014 |  |  |  | 
[2H]C([2H])([2H])Nc1ccc(C#Cc2ccc([C@H](C)NC(=O)c3nnn(C)c3Cc3ccccc3)cc2)nc1 [IRCBC-150] | 0.001 | 0.001 |  |  | 
C[C@H](NC(=O)c1nnn(C)c1Cc1ccccc1)c1ccc(C#Cc2ncc(N3CCOCC3)cc2C#N)cc1 [IRCBC-154] | 0.002 |  |  |  | 
CNc1cnc(C#Cc2ccc([C@H](C)NC(=O)c3nnn(C)c3Cc3ccccc3)cc2)nc1 [IRCBC-160] | 0.00234 |  |  |  | 
C[C@H](NC(=O)c1nnn(C)c1Cc1ccccc1)c1ccc(C#Cc2ncc(N)cn2)cc1 [IRCBC-161] | 0.002 | 0.002 |  |  | 
[2H]C([2H])([2H])Nc1cnc(C#Cc2ccc([C@H](C)NC(=O)c3nnn(C)c3Cc3ccccc3)cc2)nc1 [IRCBC-256] | 0.00121 |  |  |  | 
[2H]C([2H])([2H])Nc1cnc(C#Cc2ccc([C@H](C)NC(=O)c3nnn(C)c3Cc3ccccc3)cc2)c(C#N)c1 [IRCBC-257] | 0.00117 |  |  |  | 
C[C@H](NC(=O)c1nnn(C)c1Cc1ccccc1)c1ccc(C#Cc2ncc(N3CC(N(C)C)C3)cn2)cc1 [IRCBC-259] | 0.001 |  |  |  | 
CC(C)Nc1cnc(C#Cc2ccc([C@H](C)NC(=O)c3nnn(C)c3Cc3ccccc3)cc2)nc1 [IRCBC-269] |  |  | 0.00168 |  | 
